Legend:
3×Tg‐AD mice = assay: Golgi staining of dendritic spines and Western blotting of synaptic markers in 3×Tg-AD mice; type: in vivo
Protocol: Triple transgenic 3×Tg‐AD mice were acquired from Jackson Laboratory and fostered in the Shenzhen Center for Disease Control and Prevention (Shenzhen, China). Eight‐month‐old 3×Tg‐AD mice were categorized into six groups: (1) 3×Tg‐AD +Vehicle group; (2) 3×Tg‐AD +MN‐08 (3 mg/kg) group; (3) 3×Tg‐AD +MN‐08 (6 mg/kg) group; (4) 3×Tg‐AD +MN‐08 (12 mg/kg) group; (5) 3×Tg‐AD +Memantine (Mem, 5 mg/kg) group; (6) 3×Tg‐AD +Donepezil (Done, 1.3 mg/kg, once daily) group; (7) Eight‐month‐old B6129SF2/J mice as a control group. MN‐08 and memantine were given twice daily (Done, once daily) by gastric gavage for 4 months from 8 months of age.
Golgi staining was used to determine hippocampal dendritic spine density by a Rapid Golgi Stain Kit (FD Neurotechnologies, Columbia, MD, USA) according to the manufacturer’s instructions. The brain was removed after the behavioral tests and incubated with impregnation solution in the dark at room temperature for 1 week. Impregnation solution was replaced with solution A and stored in the dark for 3 days. Brain sections (100 μm thickness) were placed on gelatin-coated microscope slides and then immersed in ddH2O. Solution B, Solution C, 80 % ethanol and xylene were used for 10 min, sequentially. The dendritic spines of hippocampal neurons were analyzed and counted in a blinded manner from six sections per animal by light microscopy (Olympus, Tokyo, Japan).
Western blotting analysis was performed as previously described with minor modifications (Huang, Li, & Nan, 2017). Proteins were extracted from hippocampal tissue and their concentrations determined by the BCA protein assay kit (Fdbio science, Hangzhou, China). The protein (20 μg) was separated on a 12% SDS-PAGE gel and then transferred to PVDF membranes. The membranes were blocked using 5 % nonfat dry milk for 2 h. […] Quantitative analysis of protein bands was conducted by the Carestream system (Carestream Health, Inc, USA).

[1] = tested on: experimental subarachnoid hemorrhage models; design: method as in Luo et al., 2019; settings: ref Luo et al., 2019; cited from earlier work
[2] = tested on: cerebellar granule neurons (CGNs); assay: MTT cell viability, glutamate-induced excitotoxicity in CGNs; type: cell-based, rat; settings: MN‐08 1–50 µM for 2 h, then 100 μM glutamate 24 h
Protocol: Excessive glutamate‐induced excitotoxicity might cause dysfunctions of cellular pathways, subsequently resulting in synaptic dysfunctions and neuronal loss. To evaluate the neuroprotective effects of MN‐08 against excitotoxicity, cerebellar granule neurons (CGNs) were treated with MN‐08 at the concentrations from 1 to 50 µM or memantine from 1 to 10 μM for 2 h, and then exposed to 100 μM glutamate for 24 h. […] Similarly, in APP/PS1 mice, MN‐08 prevented neuronal loss in the hippocampus by upregulating the expression ratio of Bcl‐2/Bax and downregulating the expression ratio of cleaved Caspase‐3 to Caspase‐3 (Figure S6).
CGNs were prepared from the 8-day-old Sprague–Dawley rats as described in our previous publication (Li et al., 2005). Briefly, animals were anesthetized and sacrificed, and their cerebella were collected. […]
Neurotoxicity was assessed using the tetrazolium salt 3-(4,5-dimethylthiazol-2-yl)-2,5- diphenyltetrazolium bromide dye (MTT) assay as previous publication (Luo et al., 2010). […] Cell viability was evaluated by observing colorimetric changes using a CLARIOstar plus Microplate Reader (BMG Labtech, Ortenberg, Germany) at a test wavelength of 570 nm with 655 nm as a reference wavelength. Data were expressed as a percentage of control cultures.

normal rats = tested on: normal rats; design: method as in Luo et al., 2019; settings: ref Luo et al., 2019; cited from earlier work

Row | Compound | reduction of dendritic spines (hippocampus CA1, Golgi staining) (3×Tg‐AD mice; memantine 5 mg/kg) | cerebral blood flow [1] | protection against glutamate‐induced excitotoxicity (MTT) [2] | reduction of dendritic spines (hippocampus CA1, Golgi staining) (3×Tg‐AD mice; MN‐08 6 mg/kg) | expression of synaptic markers (SYP, PSD95, SYN I, SYN II, NR2A) (3×Tg‐AD mice; MN‐08 6 mg/kg, Western blot) | blood pressure (normal rats)
1 | CC12CC3CC(C)(C1)CC(N)(C3)C2 [memantine, 1‐amino‐3,5‐dimethyladamantane] | markedly reversed | – | – | – | – | –
2 | CCC12CC3CC(N)(C1)CC(CO[N+](=O)[O-])(C3)C2 (stereo not drawn) [MN‐08] | – | increase | concentration‐dependently protect | markedly reversed | significantly increased | does not, however, change
